These results are taken from patent US10550124B2, “Atropisomerism for increased kinase inhibitor selectivity” (SAN DIEGO STATE UNIVERSITY RESEARCH FOUNDATION, priority 2015, dated 2020).

Series [1] concerns the target Alk (Homo sapiens, UniProt Q9UM73). The series can be described thus: Z′-LYTE kinase inhibition assay, Alk. The class given is biochemical. The conditions noted are these: average of 2 runs. The source says: (§1) All samples were sent out to Life Technologies to obtain kinase inhibition data. A brief description of the assays and analyses are included below.
(§2) Assay Theory (SelectScreen® Kinase Profiling Services (Life Technologies, Madison, Wis. USA). The Z′-LYTE® biochemical assay employs a fluorescence-based, coupled-enzyme format and is based on the differential sensitivity of phosphorylated and non-phosphorylated peptides to proteolytic cleavage. The peptide substrate is labeled with two fluorophores one at each end—that make up a FRET pair.
(§3) In the primary reaction, the kinase transfers the gamma-phosphate of ATP to a single tyrosine, serine or threonine residue in a synthetic FRET-peptide. In the secondary reaction, a site-specific protease recognizes and cleaves non-phosphorylated FRET-peptides.
(§4) Phosphorylation of FRET-peptides suppresses cleavage by the Development Reagent. Cleavage disrupts FRET between the donor (i.e., coumarin) and acceptor (i.e., fluorescein) fluorophores on the FRET-peptide, whereas uncleaved, phosphorylated FRET-peptides maintain FRET. A ratiometric method, which calculates the ratio (the Emission Ratio) of donor emission to acceptor emission after excitation of the donor fluorophore at 400 nm, is used to quantitate reaction progress, as shown in the equation below: […]
(§5) A significant benefit of this ratiometric method for quantitating reaction progress is the elimination of well-to-well variations in FRET-peptide concentration and signal intensities. As a result, the assay yields very high Z′-factor values (>0.7) at a low percent phosphorylation. Both cleaved and uncleaved FRET-peptides contribute to the fluorescence signals and therefore to the Emission Ratio. The extent of phosphorylation of the FRET-peptide can be calculated from the Emission Ratio. The Emission Ratio will remain low if the FRET-peptide is phosphorylated (i.e., no kinase inhibition) and will he high if the FRET-peptide is non-phosphorylated (i.e., kinase inhibition).

Series [2] addresses Yes (Homo sapiens, UniProt P07947). Nature of the series: Z′-LYTE kinase inhibition assay, Yes. The class given is biochemical.
Text: as §1, §2, §3, §4, §5

Series [3] has as its target Hck (Homo sapiens, UniProt P08631). Nature of the series: Z′-LYTE kinase inhibition assay, Hck. The class given is biochemical. The note with it: average of 2 runs.
Text: as §1, §2, §3, §4, §5

In series [4] the target is Kit (Homo sapiens, UniProt P10721). Nature of the series: Z′-LYTE kinase inhibition assay, Kit. The class given is biochemical. The note with it: average of 2 runs.
Text: as §1, §2, §3, §4, §5

The target of series [5] is Fyn (Homo sapiens, UniProt P06241). The series can be described thus: Z′-LYTE kinase inhibition assay, Fyn. The class given is biochemical. The note with it: average of 2 runs.
Text: as §1, §2, §3, §4, §5

The target in series [6] is Src kinase (Homo sapiens, UniProt P12931). The series can be described thus: Z′-LYTE kinase inhibition assay, Src. It is filed as biochemical. The note with it: for IC50: Src, error is standard deviation.
Text: Based on the observed stereochemical stabilities, we chose 1f, 2e, and 2f for further study and obtained inhibition data against Src kinase from Life Technologies' Z′-LYTE™ kinase assay (Scheme 3).
as §1, §2, §3, §4, §5

For series [7], the target named is Ret (Homo sapiens, UniProt P07949). Nature of the series: Z′-LYTE kinase inhibition assay, Ret. The class given is biochemical.
Text: as §1, §2, §3, §4, §5

In series [8] the target is Abl (Homo sapiens, UniProt P00519). The series can be described thus: Z′-LYTE kinase inhibition assay, Abl. The class given is biochemical.
Text: as §1, §2, §3, §4, §5

For series [9], the target named is EGFR (Homo sapiens, UniProt P00533). The series can be described thus: Z′-LYTE kinase inhibition assay, EGFR. It is filed as biochemical.
Text: as §1, §2, §3, §4, §5

Series [10] concerns the target Lck (Homo sapiens, UniProt P06239). The series can be described thus: Z′-LYTE kinase inhibition assay, Lck. The class given is biochemical. The conditions noted are these: average of 2 runs.
Text: as §1, §2, §3, §4, §5

Series [11] concerns the target Her-2 (Homo sapiens, UniProt P04626). Nature of the series: Z′-LYTE kinase inhibition assay, Her-2. The note with it: average of 2 runs. The class given is biochemical.
Text: as §1, §2, §3, §4, §5

Series [12] deals with Fgr (Homo sapiens, UniProt P09769). The series can be described thus: Z′-LYTE kinase inhibition assay, Fgr. The class given is biochemical. The conditions noted are these: average of 2 runs.
Text: as §1, §2, §3, §4, §5

Series [13] addresses CSK (Homo sapiens, UniProt P41240). Nature of the series: Z′-LYTE kinase inhibition assay, CSK. It is filed as biochemical. The conditions noted are these: average of 2 runs.
Text: as §1, §2, §3, §4, §5

The target of series [14] is pdgfr-a (Homo sapiens, UniProt P16234). Nature of the series: Z′-LYTE kinase inhibition assay, pdgfr-a. It is filed as biochemical. The note with it: average of 2 runs.
Text: as §1, §2, §3, §4, §5

The subject of series [15] is panel of 18 tyrosine kinases. The series can be described thus: Kinase inhibitor profiling across a panel of tyrosine kinases (selectivity). It is filed as biochemical. The note with it: for S(40%): number of kinases inhibited greater than 40% divided by number of kinases tested (including Src). The protocol:
In order to probe the effect of atropisomeric conformation on kinase selectivity we subjected 1f, 2e, and 2f to kinase inhibitor profiling across a panel of tyrosine kinases at 1000 nM and 5000 nM (data for 2e shown in Scheme 4 below).
To analyze each analog's selectivity across the panel we turned to selectivity scores (Davis et al., Nat. Biotechnol. 2011, 29, 1046-51), simply the number of kinases inhibited above a certain threshold divided by the number of kinases evaluated. […] For example at 1000 nM 2e-(R) yielded an S(40%) of 0.11 while 2e-(S) gave an S(40%) of 0.16. […] Differences in selectivity between 2e-(R) and 2e-(S) at 5000 nM (4.5 times the IC50 of 2e-(S) toward Src) and for 5 at 1000 nM (6.25 times the IC50 of 5 toward Src) can be viewed graphically across tyrosine kinases (FIG. 3). Importantly, similar trends were also observed across each of the atropisomeric series tested.
as §1, §2, §3, §4, §5

The target of series [16] is BTK (Homo sapiens, UniProt Q06187). The series can be described thus: Z′-LYTE kinase inhibition assay, BTK. It is filed as biochemical. The conditions noted are these: average of 2 runs.
Text: as §1, §2, §3, §4, §5

For series [17], the target named is Lyn (Homo sapiens, UniProt P07948). The series can be described thus: Z′-LYTE kinase inhibition assay, Lyn. The note with it: average of 2 runs. The class given is biochemical.
Text: as §1, §2, §3, §4, §5

For series [18], the target named is Blk (Homo sapiens, UniProt P51451). The series can be described thus: Z′-LYTE kinase inhibition assay, Blk. It is filed as biochemical. The note with it: average of 2 runs.
Text: as §1, §2, §3, §4, §5

Series [19] addresses pdgfr-b (Homo sapiens, UniProt P09619). Nature of the series: Z′-LYTE kinase inhibition assay, pdgfr-b. It is filed as biochemical. The conditions noted are these: average of 2 runs.
Text: as §1, §2, §3, §4, §5

Series [20] in a line: Experimental measurement of the barriers to rotation (chiral HPLC). The class given is physicochemical. The note with it: for Barrier to Rotation: calculated from kobs, Gibbs free energy equation; for Barrier to Rotation kobs: observed rate constant of racemization, in ethanol, heated at constant temperature, in s^-1 (unit assumed). The protocol: Enantiomerically enriched atropisomeric pyrrolopyrimidine analogues were isolated via chiral HPLC (Daicel Chiralpak IA PN:80335, 3 mL/min, 80:20 or 50:50 hexanes:[…], 25° C.) and evaporated in vacuo. The enantiomerically enriched analogues were then dissolved in ethanol and placed in a sealed 2-dram vial and heated under constant temperature on an aluminum block. At each time point, an aliquot of the mixture was removed and quenched in an HPLC vial containing ice cold 80:20 hexanes:ethanol. Each sample was then injected into the chiral HPLC system (Daicel Chiralpak IA PN:80325, 1 mL/min, 80:20 or 50:50 hexanes:ethanol, 25° C.) and enantiomeric excess (ee) measured. The timepoint and enantiomeric excess (ee) data was then plotted in order to determine an observed rate constant, kobs, at the corresponding temperature. The barrier to rotation was then calculated using the relationship of kracemization=2*kenantiomerization and then substituted into the Gibbs Free Energy Equation:
[formula] where h=Planck Constant, kb=Boltzmann Constant, T=Temp. (K), R=Gas Constant.

“And” between values parts separate entries of the source, which are not always exact repeats. Equal values may be shown once.

Chain of Abl (P00519 whole entry): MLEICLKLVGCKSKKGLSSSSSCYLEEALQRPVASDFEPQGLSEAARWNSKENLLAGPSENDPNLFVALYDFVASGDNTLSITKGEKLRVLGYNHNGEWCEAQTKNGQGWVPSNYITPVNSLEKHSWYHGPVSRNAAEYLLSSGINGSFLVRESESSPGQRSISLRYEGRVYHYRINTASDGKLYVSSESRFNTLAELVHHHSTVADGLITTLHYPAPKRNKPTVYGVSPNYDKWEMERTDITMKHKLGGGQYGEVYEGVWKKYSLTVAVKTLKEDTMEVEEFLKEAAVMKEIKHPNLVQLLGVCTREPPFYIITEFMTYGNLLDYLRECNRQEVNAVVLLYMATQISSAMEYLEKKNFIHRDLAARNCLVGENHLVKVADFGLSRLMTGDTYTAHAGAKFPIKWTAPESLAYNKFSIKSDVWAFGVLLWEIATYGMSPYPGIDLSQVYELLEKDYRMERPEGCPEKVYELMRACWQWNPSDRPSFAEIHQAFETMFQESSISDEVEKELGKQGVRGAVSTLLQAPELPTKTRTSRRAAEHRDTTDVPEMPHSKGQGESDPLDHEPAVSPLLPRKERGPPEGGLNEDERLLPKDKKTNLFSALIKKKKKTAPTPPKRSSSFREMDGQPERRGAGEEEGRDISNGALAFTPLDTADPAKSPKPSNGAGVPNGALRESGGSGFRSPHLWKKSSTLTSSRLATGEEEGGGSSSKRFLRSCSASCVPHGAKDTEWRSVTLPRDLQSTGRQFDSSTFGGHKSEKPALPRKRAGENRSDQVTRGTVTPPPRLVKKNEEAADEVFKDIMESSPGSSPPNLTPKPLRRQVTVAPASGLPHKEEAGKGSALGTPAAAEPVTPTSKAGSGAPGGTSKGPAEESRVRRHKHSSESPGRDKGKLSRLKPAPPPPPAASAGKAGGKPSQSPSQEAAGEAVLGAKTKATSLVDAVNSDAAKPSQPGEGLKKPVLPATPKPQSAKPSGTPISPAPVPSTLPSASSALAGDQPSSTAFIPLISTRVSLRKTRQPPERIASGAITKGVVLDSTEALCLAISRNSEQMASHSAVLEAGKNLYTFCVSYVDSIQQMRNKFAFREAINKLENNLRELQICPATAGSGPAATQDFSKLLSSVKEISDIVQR
Chain of Ret (P07949 29-1114): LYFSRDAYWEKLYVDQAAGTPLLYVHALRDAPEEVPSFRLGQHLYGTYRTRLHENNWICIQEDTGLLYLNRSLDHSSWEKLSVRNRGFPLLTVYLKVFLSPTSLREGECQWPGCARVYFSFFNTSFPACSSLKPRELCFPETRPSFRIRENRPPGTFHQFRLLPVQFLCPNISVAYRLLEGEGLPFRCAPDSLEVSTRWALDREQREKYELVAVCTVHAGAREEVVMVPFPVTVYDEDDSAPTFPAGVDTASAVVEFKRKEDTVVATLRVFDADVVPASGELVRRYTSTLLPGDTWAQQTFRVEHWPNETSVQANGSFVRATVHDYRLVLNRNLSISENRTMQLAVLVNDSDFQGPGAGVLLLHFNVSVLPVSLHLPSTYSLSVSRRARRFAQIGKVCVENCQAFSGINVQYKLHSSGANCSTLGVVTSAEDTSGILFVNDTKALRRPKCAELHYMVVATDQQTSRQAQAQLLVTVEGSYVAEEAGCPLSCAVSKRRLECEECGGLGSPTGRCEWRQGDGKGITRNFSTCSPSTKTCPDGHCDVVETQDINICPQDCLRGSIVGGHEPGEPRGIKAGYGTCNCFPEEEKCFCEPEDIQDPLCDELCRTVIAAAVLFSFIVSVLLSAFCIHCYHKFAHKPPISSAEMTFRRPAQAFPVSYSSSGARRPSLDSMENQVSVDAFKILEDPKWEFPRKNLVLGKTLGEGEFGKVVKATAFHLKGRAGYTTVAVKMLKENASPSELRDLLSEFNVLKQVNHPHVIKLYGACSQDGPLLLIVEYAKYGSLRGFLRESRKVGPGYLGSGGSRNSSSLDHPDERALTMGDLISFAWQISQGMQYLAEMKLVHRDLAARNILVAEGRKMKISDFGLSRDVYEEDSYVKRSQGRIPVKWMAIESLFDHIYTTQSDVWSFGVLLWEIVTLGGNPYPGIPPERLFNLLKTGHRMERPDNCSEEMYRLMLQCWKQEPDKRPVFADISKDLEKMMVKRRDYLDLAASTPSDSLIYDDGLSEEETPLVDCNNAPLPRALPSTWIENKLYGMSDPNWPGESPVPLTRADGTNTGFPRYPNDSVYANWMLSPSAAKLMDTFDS
Chain of Yes (P07947 whole entry): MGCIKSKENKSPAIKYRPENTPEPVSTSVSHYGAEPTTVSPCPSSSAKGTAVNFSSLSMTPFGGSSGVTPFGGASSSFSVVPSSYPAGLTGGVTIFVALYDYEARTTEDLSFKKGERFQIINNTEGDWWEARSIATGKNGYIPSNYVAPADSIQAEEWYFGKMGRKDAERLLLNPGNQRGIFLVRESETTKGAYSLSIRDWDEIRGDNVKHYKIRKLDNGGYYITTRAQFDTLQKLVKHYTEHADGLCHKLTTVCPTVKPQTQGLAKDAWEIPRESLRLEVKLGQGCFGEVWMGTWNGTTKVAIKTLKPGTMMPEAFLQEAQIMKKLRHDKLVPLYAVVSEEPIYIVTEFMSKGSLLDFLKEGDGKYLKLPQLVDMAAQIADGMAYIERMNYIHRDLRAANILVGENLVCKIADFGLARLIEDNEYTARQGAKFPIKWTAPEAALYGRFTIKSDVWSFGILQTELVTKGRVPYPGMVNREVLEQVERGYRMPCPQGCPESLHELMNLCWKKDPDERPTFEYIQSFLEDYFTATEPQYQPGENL
Chain of EGFR (P00533 25-1210): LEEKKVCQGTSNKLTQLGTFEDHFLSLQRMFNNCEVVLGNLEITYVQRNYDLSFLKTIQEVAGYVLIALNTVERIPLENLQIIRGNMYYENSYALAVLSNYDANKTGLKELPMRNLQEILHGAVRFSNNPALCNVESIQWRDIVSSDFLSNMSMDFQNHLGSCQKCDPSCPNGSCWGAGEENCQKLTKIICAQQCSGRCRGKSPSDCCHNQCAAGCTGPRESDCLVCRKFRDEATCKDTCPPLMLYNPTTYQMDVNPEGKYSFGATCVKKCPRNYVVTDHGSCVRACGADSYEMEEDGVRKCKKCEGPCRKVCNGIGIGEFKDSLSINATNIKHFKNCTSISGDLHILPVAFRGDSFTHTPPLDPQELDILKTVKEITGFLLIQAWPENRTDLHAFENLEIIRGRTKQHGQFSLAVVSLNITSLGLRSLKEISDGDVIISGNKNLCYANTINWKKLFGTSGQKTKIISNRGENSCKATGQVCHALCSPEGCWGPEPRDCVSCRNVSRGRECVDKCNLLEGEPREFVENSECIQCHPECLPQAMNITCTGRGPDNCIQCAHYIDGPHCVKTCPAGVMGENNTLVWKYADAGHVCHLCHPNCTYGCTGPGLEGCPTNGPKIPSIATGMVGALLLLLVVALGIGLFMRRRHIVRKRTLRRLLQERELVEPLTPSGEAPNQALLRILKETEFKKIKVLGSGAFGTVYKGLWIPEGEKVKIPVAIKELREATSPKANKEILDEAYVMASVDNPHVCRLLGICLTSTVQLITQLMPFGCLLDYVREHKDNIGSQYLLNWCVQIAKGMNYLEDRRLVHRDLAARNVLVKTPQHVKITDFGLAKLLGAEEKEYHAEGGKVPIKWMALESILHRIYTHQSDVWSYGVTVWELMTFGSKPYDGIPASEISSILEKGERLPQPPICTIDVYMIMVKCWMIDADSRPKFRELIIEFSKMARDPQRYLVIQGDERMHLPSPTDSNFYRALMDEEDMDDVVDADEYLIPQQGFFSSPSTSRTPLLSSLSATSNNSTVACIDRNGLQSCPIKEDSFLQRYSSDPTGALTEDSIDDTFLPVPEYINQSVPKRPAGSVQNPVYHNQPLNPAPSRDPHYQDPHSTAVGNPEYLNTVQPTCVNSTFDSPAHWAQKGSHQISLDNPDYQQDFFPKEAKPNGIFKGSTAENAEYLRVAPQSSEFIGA
Chain of Src kinase (P12931 whole entry): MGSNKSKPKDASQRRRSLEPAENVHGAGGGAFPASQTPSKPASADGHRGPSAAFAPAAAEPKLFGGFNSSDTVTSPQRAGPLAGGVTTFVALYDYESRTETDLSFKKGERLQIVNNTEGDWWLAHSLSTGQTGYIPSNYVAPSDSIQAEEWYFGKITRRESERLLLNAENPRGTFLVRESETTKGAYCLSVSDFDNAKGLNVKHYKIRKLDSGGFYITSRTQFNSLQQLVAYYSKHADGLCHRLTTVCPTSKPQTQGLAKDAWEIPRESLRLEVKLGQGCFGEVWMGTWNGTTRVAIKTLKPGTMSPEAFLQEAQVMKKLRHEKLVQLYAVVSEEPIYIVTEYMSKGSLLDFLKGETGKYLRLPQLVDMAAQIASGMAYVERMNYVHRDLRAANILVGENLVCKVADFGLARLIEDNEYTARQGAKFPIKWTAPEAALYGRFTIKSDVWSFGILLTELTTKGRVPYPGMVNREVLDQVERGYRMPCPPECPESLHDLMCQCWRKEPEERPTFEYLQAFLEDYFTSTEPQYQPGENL
Chain of Blk (P51451 whole entry): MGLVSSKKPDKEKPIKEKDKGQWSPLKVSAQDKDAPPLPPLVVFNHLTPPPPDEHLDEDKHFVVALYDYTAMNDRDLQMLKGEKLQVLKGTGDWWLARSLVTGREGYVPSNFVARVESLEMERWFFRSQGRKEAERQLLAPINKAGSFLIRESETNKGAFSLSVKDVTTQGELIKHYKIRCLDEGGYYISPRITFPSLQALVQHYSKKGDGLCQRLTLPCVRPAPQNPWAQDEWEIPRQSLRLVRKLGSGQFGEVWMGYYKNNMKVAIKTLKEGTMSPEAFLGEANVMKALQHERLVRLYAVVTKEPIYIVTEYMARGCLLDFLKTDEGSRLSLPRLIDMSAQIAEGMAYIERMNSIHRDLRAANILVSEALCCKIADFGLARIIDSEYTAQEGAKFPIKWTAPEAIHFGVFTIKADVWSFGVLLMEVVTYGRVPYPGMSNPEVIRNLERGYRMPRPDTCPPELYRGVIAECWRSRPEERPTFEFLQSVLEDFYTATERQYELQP

In general, inhibition refers to the percentage by which the read-out fell short of the control. The low end stands for little suppression, the high end for strong suppression. The term IC50 denotes the concentration that inhibits the measured activity by half. High values mean weaker potency in that assay, low ones greater potency in that assay. As for `COc1cccc(-c2cn(C(C)(C)C)c3ncnc(N)c23)c1` [Compound 5, reference compound], the inhibition at 0.2 µM was determined as 11% in [1] (200 nM); 63% in series [2] (Yes, 200 nM, average of 2 runs); 59% in series [3] (200 nM); 8% in [4] (200 nM); 56% in series [5] (200 nM); 59% in [7] (Ret, 200 nM, average of 2 runs). Also, the inhibition at 0.2 µM in series [8] (Abl, 200 nM, average of 2 runs) stood at 37%; in [9] (EGFR, 200 nM, average of 2 runs) it was 28%; in [10] (200 nM), 32%; in [11] (200 nM), 4%; in [12] (200 nM), 69%; in series [13] (200 nM), 36%. For the same compound, the inhibition at 0.2 µM is 11% in series [14] (200 nM); 62% in series [16] (200 nM); 58% in [17] (200 nM); 38% in series [18] (200 nM); 6% in series [19] (200 nM). In addition, the inhibition at 1 µM was 23% in [1] (1000 nM); 90% in series [2] (Yes, 1000 nM, average of 2 runs); 80% in series [3] (1000 nM); 27% in series [4] (1000 nM); 84% in [5] (1000 nM); 89% in series [7] (Ret, 1000 nM, average of 2 runs). In addition, the inhibition at 1 µM was determined as 78% in series [8] (Abl, 1000 nM, average of 2 runs); 62% in series [9] (EGFR, 1000 nM, average of 2 runs); 79% in series [10] (1000 nM); 16% in series [11] (1000 nM); 92% in series [12] (1000 nM); 65% in [13] (1000 nM). Further, the inhibition at 1 µM in series [14] (1000 nM) was 34%; in series [16] (1000 nM), 90%; in series [17] (1000 nM) it was 85%; in series [18] (1000 nM), 74%; in series [19] (1000 nM) it was 19%. Further, the “IC50 of Kinase/IC50 of Yes” value is 1 in series [2] (Yes relative to Yes); 1.64 in series [6] (Src relative to Yes); 1.4 in series [7] (Ret relative to Yes); 2.65 in series [8] (Abl relative to Yes); 7 and 6.96 in [9] (EGFR relative to Yes). Moreover, the IC50 in [2] (Yes, error is standard deviation) is 0.092 µM; in series [6], 0.151 µM; in series [7] (Ret, error is standard deviation), 0.128 µM; in series [8] (Abl, error is standard deviation), 0.244 µM; in series [9] (EGFR, error is standard deviation) it was 0.641 µM. The “S(40%)” value amounted to 0.44 in series [15] (200 nM) and 0.72 in series [15] (1000 nM). Moreover, in series [15] (Ret, Src, Abl vs Yes), the “relative selectivities favoring Yes (IC50 kinase/IC50 YES) over Ret, Src, and Abl” value is given as 1.4-2.65 fold.
In the case of `COc1ccc(Br)c(-c2c(Cl)n(C(C)(C)C)c3ncnc(N)c23)c1` (racemic) [Compound 2f, 5-(2-bromo-5-methoxyphenyl)-7-(tert-butyl)-6-chloro-7H-pyrrolo[2,3-d]pyrimidin-4-amine], in [20], the “Barrier to Rotation” value was 127 kJ/mol and the “Barrier to Rotation kobs” value was 2.68E−05.
For the compound `COc1ccc(Br)c(-c2c(Cl)n(C3CCCC3)c3ncnc(N)c23)c1` (single isomer, unassigned) [1f-(R), 5-(2-bromo-5-methoxyphenyl)-6-chloro-7-cyclopentyl-7H-pyrrolo[2,3-d]pyrimidin-4-amine], the IC50 in series [6] is > 10 µM.
Turning to `COc1ccc(Br)c(-c2c(Cl)n(C3CCCC3)c3ncnc(N)c23)c1` (racemic) [Compound 1f, 5-(2-bromo-5-methoxyphenyl)-6-chloro-7-cyclopentyl-7H-pyrrolo[2,3-d]pyrimidin-4-amine], in series [20], the “Barrier to Rotation” value is 121 kJ/mol and the “Barrier to Rotation kobs” value came to 1.01E−05.
In the same order, the values of `COc1ccc(Cl)c(-c2c(Cl)n(C3CCCC3)c3ncnc(N)c23)c1` [Compound 1e, 6-chloro-5-(2-chloro-5-methoxyphenyl)-7-cyclopentyl-7H-pyrrolo[2,3-d]pyrimidin-4-amine] are 114 kJ/mol and 1.24E−04.
As for `COc1ccc(Br)c(-c2c(Cl)n(C3CCCC3)c3ncnc(N)c23)c1` (single isomer, unassigned) [1f-(S), 5-(2-bromo-5-methoxyphenyl)-6-chloro-7-cyclopentyl-7H-pyrrolo[2,3-d]pyrimidin-4-amine], in series [6], inhibition was half-maximal at 1.3 µM (IC50).
For the compound `COc1ccc(Cl)c(-c2c(Cl)n(C(C)(C)C)c3ncnc(N)c23)c1` (racemic) [Compound 2e, 7-(tert-butyl)-6-chloro-5-(2-chloro-5-methoxyphenyl)-7H-pyrrolo[2,3d]pyrimidin-4-amine], in series [20], the “Barrier to Rotation” value is 120 kJ/mol and the “Barrier to Rotation kobs” value worked out at 3.27E−05.
